Test results taken from US20230365563A1, “QUINAZOLINE COMPOUND AND APPLICATION THEREOF” (SHANGHAI PHARMACEUTICALS HOLDING CO., LTD., priority 2020, published 2023).
Where a name gives a salt, the structure may show the parent alone.

How the values were obtained:
KRAS_G12D and cRAF = biological target: T1, KRAS_G12D and cRAF (Homo sapiens, UniProt P01116, G12D); assay: Inhibition of KRAS_G12D/cRAF binding (Cisbio binding kit, 665/615 ratio), Effect Embodiment B; conditions: read-out: GTP-KRAS-G12D:CRAF IC50
T1 construct: purchased
In short: (§1)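 Compounds are tested over eleven threefold dilution steps in duplicate, with final DMSO at 1%.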

KRAS-G12D and SOS1 = biological target: T2, KRAS-G12D and SOS1 (Homo sapiens, UniProt P01116, G12D); assay: Inhibition of KRAS-G12D/SOS1 binding (Cisbio binding kit, 665/615 ratio), Effect Embodiment A; conditions: read-out: GTP-KRAS-G12D:SOS1 IC50
T2 construct: purchased
In short: as §1

KRAS_WT and SOS1 = biological target: T3, KRAS_WT and SOS1 (Homo sapiens, UniProt P01116); assay: Inhibition of KRAS_WT/SOS1 binding (Cisbio binding kit, 665/615 ratio), Effect Embodiment C; conditions: read-out: GTP-KRAS-WT:SOS1 IC50
T3 construct: purchased
In short: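 Compounds tested as 3-fold, 11-point dilutions in duplicate at 1% DMSO final against the KRAS_WT/SOS1 binding system. IC50 derived by nonlinear regression fit.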

T2 sequence (P01116 1-188 isoform P01116-2 G12D): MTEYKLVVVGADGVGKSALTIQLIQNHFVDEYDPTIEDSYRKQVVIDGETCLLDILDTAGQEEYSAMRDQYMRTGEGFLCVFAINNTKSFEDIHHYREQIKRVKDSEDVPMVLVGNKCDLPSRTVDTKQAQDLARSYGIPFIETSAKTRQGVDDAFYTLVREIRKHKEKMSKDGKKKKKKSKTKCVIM
T1 sequence (P01116 1-188 isoform P01116-2 G12D): as above
T3 sequence (P01116 1-188 isoform P01116-2): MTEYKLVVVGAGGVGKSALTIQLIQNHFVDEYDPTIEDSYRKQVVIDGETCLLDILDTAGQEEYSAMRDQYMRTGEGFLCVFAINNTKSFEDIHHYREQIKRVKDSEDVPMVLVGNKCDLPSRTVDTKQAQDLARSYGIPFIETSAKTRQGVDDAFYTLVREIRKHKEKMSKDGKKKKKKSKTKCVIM

| Compound | IC50 (KRAS_G12D and cRAF) [nM] | IC50 (KRAS-G12D and SOS1) [nM] | IC50 (KRAS_WT and SOS1) [nM] |
| --- | --- | --- | --- |
| C[C@@H](COc1nc(N2CC3CCC(C2)N3)c2cc(Cl)c(-c3cc(O)cc4ccccc34)c(F)c2n1)CN1C2CC3CC1CC(C2)O3 (single isomer, unassigned) [Compound 230, 4-((S or R)-2-((R)-3-((1R,3R,5R,7R)-2-oxa-6-azadamantan-6-yl)-2-methylpropoxy)-4-((1R,5S)-3,8-diazabicyclo[3.2.1]octan-3-yl)-6-chloro-8-fluoroquinazolin-7-yl)naphthalen-2-ol diformate] | 28.1 | 15.7 | 626 |
| CN(C)C(=O)OCC1CCC2(COc3nc(N4CC5CCC(C4)N5)c4cc(Cl)c(-c5cc(O)cc6ccccc56)c(F)c4n3)CCCN12 (single isomer, unassigned) [Compound 232a] | 7.79 | 13.7 | 10.3 |
| CCc1c(F)ccc2cc(O)cc(-c3c(Cl)cc4c(N5CC6CCC(C5)N6)nc(OC[C@H](C)CN5C6CCC5COC6)nc4c3F)c12 (single isomer, unassigned) [Compound 233b, 4-((7R or 7S)-2-((2R)-3-(3-oxa-8-azabicyclo[3.2.1]octan-8-yl)-2-methylpropoxy)-4-((1R,5S)-3,8-diazabicyclo[3.2.1]octan-3-yl)-6-chloro-8-fluoroquinazolin-7-yl)-5-ethyl-6-fluoronaphthalen-2-ol formate] | 7.18 | 9.1 | 227 |
| C[C@@H](COc1nc(N2CC3CCC(C2)N3)c2cc(Cl)c(-c3cc(O)cc4ccc(F)cc34)c(F)c2n1)CN1C2CCC1COC2 (single isomer, unassigned) [Compound 234a, 4-((7S or 7R)-2-((2R)-3-(3-oxa-8-azabicyclo[3.2.1]octan-8-yl)-2-methylpropoxy)-4-((1R,5S)-3,8-diazabicyclo[3.2.1]octan-3-yl)-6-chloro-8-fluoroquinazolin-7-yl)-6-fluoronaphthalen-2-ol diformate] | 5.79 | 11.8 | 200 |
| Oc1cc(-c2c(Cl)cc3c(N4CC5CCC(C4)N5)nc(OCCCN4C5CC6CC4CC(C5)O6)nc3c2F)c2ccccc2c1 (single isomer, unassigned) [Compound 235, 4-((S or R)-2-(3-((1R,3R,5R,7R)-2-oxa-6-azadamantan-6-yl)propoxy)-4-((1R,5S)-3,8-diazabicyclo[3.2.1]octan-3-yl)-6-chloro-8-fluoroquinazolin-7-yl)naphthalen-2-ol formate] | 149 | 52.4 | 1770 |
| C[C@@H](COc1nc(N2CC3CCC(C2)N3)c2cc(Cl)c(-c3cc(O)cc4ccccc34)c(F)c2n1)CN1C[C@@H](C)OC[C@H]1C (single isomer, unassigned) [Compound 236, 4-((S or R)-4-((1R,5S)-3,8-diazacyclo[3.2.1]octan-3-yl)-6-chloro-2-((R)-3-((2R,5R)-2,5-dimethylmorpholinyl)-2-methylpropoxy)-8-fluoroquinazolin-7-yl)naphthalen-2-ol formate] | 15 | 19.1 | 309 |
| C[C@@H](COc1nc(N2CC3CCC(C2)N3)c2cc(Cl)c(-c3cc(O)cc4ccccc34)c(F)c2n1)CN1C[C@H](C)OC[C@H]1C (single isomer, unassigned) [Compound 237, 4-((S or R)-4-((1R,5S)-3,8-diazacyclo[3.2.1]octan-3-yl)-6-chloro-2-((R)-3-((2S,5R)-2,5-dimethylmorpholinyl)-2-methylpropoxy)-8-fluoroquinazolin-7-yl)naphthalen-2-ol formate] | 18.6 | 19.5 | 569 |
| Oc1cc(-c2c(Cl)cc3c(N4CC5CCC(C4)N5)nc(OCCN4C5CC6CC4CC(C5)O6)nc3c2F)c2ccccc2c1 (single isomer, unassigned) [Compound 238, (S or R)-4-(2-(2-((1R,3R,5R,7R)-2-oxa-6-azadamantan-6-yl)ethoxy)-4-((1R,5S)-3,8-diazabicyclo[3.2.1]octan-3-yl)-6-chloro-8-fluoroquinazolin-7-yl)naphthalen-2-ol formate] | 155 | 43.3 | 3080 |
| C[C@@H](COc1nc(N2CC3CCC(C2)N3)c2cc(Cl)c(-c3cc(O)cc4ccccc34)c(F)c2n1)CN1CCOC[C@H]1C (single isomer, unassigned) [Compound 239, 4-((S or R)-4-((1R,5S)-3,8-diazacyclo[3.2.1]octyl-3-yl)-6-chloro-8-fluoro-2-((R)-2-methyl-3-((R)-3-methylmorpholinyl)propoxy)quinazolin-7-yl)naphthalen-2-ol formate] | 18.3 | 15.3 | 496 |
| Oc1cc(-c2c(Cl)cc3c(N4CC5CCC(C4)N5)nc(OCCCN4CCOC5(CC5)C4)nc3c2F)c2ccccc2c1 (single isomer, unassigned) [Compound 240, 4-((S or R)-2-(3-(4-oxa-7-azaspiro[2.5]octan-7-yl)propoxy)-4-((1R,5S)-3,8-diazacyclo[3.2.1]octan-3-yl)-6-chloro-8-fluoroquinazolin-7-yl)naphthalen-2-ol formate] | 164 | 39.1 | 2210 |
| C[C@@H]1CN(CCCOc2nc(N3CC4CCC(C3)N4)c3cc(Cl)c(-c4cc(O)cc5ccccc45)c(F)c3n2)CCO1 (single isomer, unassigned) [Compound 241, 4-((S or R)-4-((1R,5S)-3,8-diazacyclo[3.2.1]octan-3-yl)-6-chloro-8-fluoro-2-(3-((R)-2-methylmorpholinyl)propoxy)quinazolin-7-yl)naphthalen-2-ol formate] | 203 | 49.7 | 3600 |
| C[C@@H](COc1nc(N2CC3CCC(C2)N3)c2cc(Cl)c(-c3cc(O)cc4ccccc34)c(F)c2n1)CN1CCO[C@H](C)C1 (single isomer, unassigned) [Compound 242, 4-((S or R)-4-((1R,5S)-3,8-diazacyclo[3.2.1]octan-3-yl)-6-chloro-8-fluoro-2-((R)-2-methyl-3-((R)-2-methylmorpholinyl)propoxy)quinazolin-7-yl)naphthalen-2-ol formate] | 23.3 | 13.7 | 731 |
| C[C@@H](COc1nc(N2CC3CCC(C2)N3)c2cc(Cl)c(-c3cc(O)cc4ccccc34)c(F)c2n1)CN1CCOC2(CC2)C1 (single isomer, unassigned) [Compound 243, 4-((S or R)-4-((1R,5S)-3,8-diazabicyclo[3.2.1]octan-3-yl)-6-chloro-8-fluoro-2-((R)-2-methyl-3-(4-oxa-7-azaspiro[2.5]octan-7-yl)propoxy)quinazolin-7-yl)naphthalen-2-ol formate] | 37.5 | 19.2 | 1250 |
| CC(C)N1CC2CCC(C1)N2CCCOc1nc(N2CC3CCC(C2)N3)c2cc(Cl)c(-c3cc(O)cc4ccccc34)c(F)c2n1 (single isomer, unassigned) [Compound 244, 4-((7S or 7R)-4-((1R,5S)-3,8-diazacyclo[3.2.1]octan-3-yl)-6-chloro-8-fluoro-2-(3-(3-isopropyl-3,8-diazacyclo[3.2.1]octan-8-yl)propoxy)quinazolin-7-yl)naphthalen-2-ol diformate] | 260 | 48.5 | 3340 |
| Oc1cc(-c2c(Cl)cc3c(N4CC5CCC(C4)N5)nc(OCCCN4CC5(COC5)C4)nc3c2F)c2ccccc2c1 (single isomer, unassigned) [Compound 245, 4-((S or R)-2-(3-(2-oxa-6-azaspiro[3.3]heptan-6-yl)propoxy)-4-((1R,5S)-3,8-diazacyclo[3.2.1]octan-3-yl)-6-chloro-8-fluoroquinazolin-7-yl)naphthalen-2-ol diformate] | 110 | 27.4 | 1480 |
| C[C@H]1CN(CCCOc2nc(N3CC4CCC(C3)N4)c3cc(Cl)c(-c4cc(O)cc5ccccc45)c(F)c3n2)CCO1 (single isomer, unassigned) [Compound 246, 4-((S or R)-4-((1R,5S)-3,8-diazacyclo[3.2.1]octan-3-yl)-6-chloro-8-fluoro-2-(3-((S)-2-methylmorpholinyl)propoxy)quinazolin-7-yl)naphthalen-2-ol formate] | 218 | 37.4 | 3700 |
| C[C@@H](COc1nc(N2CC3CCC(C2)N3)c2cc(Cl)c(-c3cc(O)cc4ccccc34)c(F)c2n1)CN1CCO[C@@H](C)C1 (single isomer, unassigned) [Compound 247, 4-((S or R)-4-((1R,5S)-3,8-diazacyclo[3.2.1]octan-3-yl)-6-chloro-8-fluoro-2-((R)-2-methyl-3-((S)-2-methylmorpholinyl)propoxy)quinazolin-7-yl)naphthalen-2-ol formate] | 28.5 | 13.3 | 944 |
| Oc1cc(-c2c(Cl)cc3c(N4CC5CCC(C4)N5)nc(OCCCN4C5CCC4COC5)nc3c2F)c2c(F)c(F)ccc2c1 (single isomer, unassigned) [Compound 248, (4S or 4R)-4-(2-(3-(3-oxa-8-azabicyclo[3.2.1]octan-8-yl)propoxy)-4-(1R,5S)-3,8-diazabicyclo[3.2.1]octan-3-yl)-6-chloro-8-fluoroquinazolin-7-yl)-5,6-difluronaphththalen-2-ol formate] | 67.2 | 31.1 | 98.1 |
| C=CCCOCCCN1CCC[C@H]1COc1nc(N2CC3CCC(C2)N3)c2cc(F)c(-c3cc(O)cc4ccc(F)c(CC)c34)c(F)c2n1 (single isomer, unassigned) [Compound 249, 4-((S or R)-4-((1R,5S)-3,8-diazacyclo[3.2.1]octan-3-yl)-2-((S)-1-(3-(but-3-en-1-oxy)propyl)pyrrolidin-2-yl)methoxy)-6,8-difluoroquinazolin-7-yl)-5-ethyl-6-fluoronaphthalen-2-ol dihydrochloride] | 16.4 | 23.7 | 84.6 |
